Measured values reported in paper PMC9848421, “Increased brain uptake of pterostilbene loaded folate modified micellar delivery system” (Drug Delivery, 2022).

Columns and labels:
[1] = In vitro drug release by dialysis method; format: physicochemical; conditions: PBS pH 7.4 containing 0.3% Tween 80
Experimental: With free Pt acetone solution as control, in vitro release of Pt from F-Pt/M formulation was studied by the dialysis method (Khan et al., [2020]; Rubab et al., [2021]; Yang et al., [2021]). Briefly, 1 mL of samples, equivalent to 0.8 mg drug, were filled into dialysis bags (molecular weight cutoff: 3500 Da) and dialyzed against 1,000 mL of phosphate buffer solution of pH values 7.4 (containing 0.3% Tween 80) to mimic drug release in normal tissues/blood. At the desired time intervals, 1 mL of release medium was withdrawn and replaced with 1 mL of fresh medium. The amount of released Pt was measured by spectrophotometer (Thermo Scientific Inc., Finland) with excitation wavelength at 330 nm and emission wavelength at 374 nm.
In order to understand the kinetic model of Pt release from F-Pt/M, zero-order, first-order and Higuchi models were fitted, and the highest adjusted R^2 value was used as the criterion for model selection.

[2] = Brain targeting and brain distribution study in rats; format: in vivo, SD rats; conditions: single i.v. 3 mg/kg; for Cmax / Tmax / half-life: male, SD, rat, iv
Experimental: Male SD rats weighing 200–250 g (Experimental Animal Center of Dalian Medical University, China) were maintained in standard conditions on a 14 h light/10 h dark cycle provided with food and water ad libitum prior to experimental procedures. All animal experimental protocols were conducted with an approval by the Institutional Animal Care and Use Committee at Dalian Medical University, Dalian, China (Ethics Committee approval number: SCXK 2018-0003) as well as in accordance with the recommendations and policies of the National Institutes of Health (NIH) guide for the care and use of laboratory animals (NIH Publications No. 8023, revised 1978).
Rats were randomly divided into two groups of 24 animals each. Each group received either freshly prepared control free Pt solution in DMSO (10%) in saline solution or formulation of F-Pt/M at a dose equivalent to 3 mg/kg of drug intravenously through lateral tail vein. From each group, three rats were sacrificed at intervals of 5, 15, 30, 45, 60, 90, 120 and180 min post dose. At each time point, blood sample was withdrawn and centrifuged at 3,500 rpm at 4 °C for 10 min. At the same time, the brain sample was harvested, weighed, and homogenized in PBS after cardiac perfusion with 0.9% normal saline solution. Samples were stored at −80 °C until analysis.
Pt from both brain and plasma samples was extracted by liquid-liquid extraction method. Briefly, 20 µL of internal standard working solution (resveratrol, 250 ng/ml) was added to 200 µL aliquot of plasma or brain sample. After 30 seconds of vortexing, 1 mL of extraction solvent, methyl tertiary butyl ether (MTBE) was added. Afterwards, the sample was mixed for 1 min plus centrifugation at 1,000 rpm for 5 min, the supernatant organic layer was carefully transferred and dried using nitrogen gas with gentle heat at 40 °C. The residue was reconstituted with 400 µL of mobile phase and centrifuged at 12,000 rpm for 10 min. The supernatant was transferred to an auto-sampler vial and 10 µL was then injected into the LC-MS/MS system for analysis. An LC-MS/MS analysis method reported by Ferrer (Ferrer et al., [2005]) was employed for the determination of Pt concentration.
Pharmacokinetic parameters, such as Cmax (maximum drug concentration), Tmax (the time to Cmax) and AUC0-t (area under plasma concentration-time curve), were calculated by DAS 2.0 (Drug and Statistics ver 2.0, China). To examine the blood-brain barrier penetration (P) of Pt, the following formula was employed (Yang et al., [2021]): (5) P=AUCbrain/AUCplasma
For brain targeting evaluation, DTI (drug targeting index) was determined using the following equation (Katekar et al., [2020]): (6) DTI = (AUCbrain/AUCplasma)test/(AUCbrain/AUCplasma)control

A172 cells = test: In vitro cytotoxicity assay (CCK-8); format: cell-based; conditions: Homo sapiens, A 172, 48 h incubation
Experimental: Human glioblastoma A172 cells (Nanjing KeyGen Biotech Co., Ltd., Nanjing, China) which overexpress folate receptor (Weitman et al., [1992]) were used. Cells were routinely cultured in DMEM medium (Invitrogen, Grand Island, NY, USA) supplemented with 10% fetal bovine serum (Gibco Life Science, Grand Island, NY, USA) and 1% streptomycin/penicillin in a humidified atmosphere of 5% CO2 at 37 °C. Cell passages were carried out according to the manufacturer’s instructions.
To evaluate the inhibitory effects of Pt in various formulations on A172 cells, cytotoxicity assay was carried out with CCK-8 kits. Cells were seeded into 96-well plates at a density of 5,000 cells per well, followed by incubation for 24 h. Cells were treated with free Pt solution (free Pt), Pt loaded micelles (Pt/M), folate modified Pt loaded micelles (F-Pt/M) and blank micelles (BM) at equivalent drug concentrations ranging from 5 μM to 100 μM and further incubated for 48 h. […] After 2 h of incubation at 37 °C, the absorbance intensity was measured by a microplate reader (Varioskan LUX; Thermo Scientific Inc., Vantaa, Finland) at 450 nm. Cell viability was calculated by the ratio between the fluorescence absorbance of the cells treated with various Pt formulations (or blank micelles) and that of the cells incubated with the culture medium only. The IC50 values were calculated by using SPSS 22.0 (IBM Corp., Armonk, NY).

[3] = design: method as in Liu et al., 2020; conditions: crude Pt; ref Liu et al., 2020; cited from earlier work
red blood cells (RBCs) = test: In vitro hemolysis assay; format: cell-based, SD rats; conditions: 37 °C, 1 h
Experimental: The hemocompatibility of F-Pt/M was investigated by hemolysis assay (Valenzuela-Oses et al., [2017]). Fresh SD rats blood was diluted by physiological saline, and red blood cells (RBCs) were collected by centrifugation at 1,200 rpm for 5 min. Following carefully washing and diluting, RBC suspension in normal saline (v/v, 2%) was prepared for hemolysis study. Pt loaded F-Pt/M and free Pt at different drug concentrations were added and mixed by vortex. Then, the samples were incubated at 37 °C for 1 h and after that were centrifuged at 3,000 rpm for 10 min. The supernatant was collected and spectrophotometrically measured on a microplate plate reader (Varioskan LUX, Thermo Scientific Inc., Vantaa, Finland) at 540 nm. Double distilled water and normal saline were employed as positive and negative control, respectively. The hemolysis ratio (HR) of RBCs was calculated using the following equation: (4) HR (%) = (As– A0)/(A100– A0) × 100
Where, As is the absorbance of sample, A0 is the absorbance of negative control and A100 is the absorbance of positive control.

For `COc1cc(/C=C/c2ccc(O)cc2)cc(OC)c1` [free Pt, 3,5-dimethoxy-4′-hydroxy-trans-stilbene], the “time over which the drug was released” value [1] was no more than 5 h, the AUC0-t ([2]; brain) was 4369.66 ± 289.88 µg·min/L and the Cmax ([2]; brain) was 0.0781 ± 0.0139 µg/mL. For the same compound, the Tmax ([2]; brain) was 35 min, the half-life ([2]; brain) was 22.4 ± 2.84 min and the Cmax ([2]; plasma) was 0.221 ± 0.0215 µg/mL. For the same compound, the Tmax ([2]; plasma) was 5 min, the half-life ([2]; plasma) was 114 ± 29.2 min and the AUC0-t ([2]; plasma) was 10107.80 ± 976.65 µg·min/L. For the same compound, the IC50 (A172 cells) was 24.4 µM, the solubility in water [3] was “about 21 µg/mL” and the “HR (hemolysis ratio)” value (red blood cells (RBCs); high concentration of 0.5 mg/mL) was 11.23%. The “HR (hemolysis ratio)” value (red blood cells (RBCs); low concentration of 0.17 mg/mL) was 6.46% and the “HR (hemolysis ratio)” value (red blood cells (RBCs); medium concentration of 0.33 mg/mL) was 10.39%.
